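In this assay, cells in 96-well plates receive the compound at five concentrations for 48 hours. Endpoints are linearly interpolated between the surrounding concentrations. GI50 = concentration required for 50% inhibition of growth. TGI denotes the concentration required for complete inhibition of growth.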 Some results are limits rather than exact numbers.

Test systems include SNB-19 CNS; SK-MEL-5 melanoma; NCI/ADR-RES ovarian; OVCAR-5 ovarian; SF-268 CNS; NCI-H226 lung; SN12C renal; MDA-MB-231 breast; SK-MEL-28 melanoma; PC-3 prostate.
Holding throughout (assay): DTP human tumour cell line panel, 48 h

On to `Cc1noc2c1-c1ccccc1C(c1ccc(Cl)cc1)=N[C@H]2CC(N)=O`, for which the GI50 was 11 µM with SNB-19 CNS; 6.96 µM with SK-MEL-5 melanoma; 2.74 µM with NCI/ADR-RES ovarian; above 100 µM with OVCAR-5 ovarian; 33.8 µM in the experiment with SF-268 CNS; 11.6 µM in the experiment on NCI-H226 lung. Besides, the GI50 with SN12C renal was 38.2 µM; with MDA-MB-231 breast, 7.56 µM; in the experiment with SK-MEL-28 melanoma, 7.38 µM; in the experiment on PC-3 prostate, 12 µM. Moreover, the TGI in the experiment on SNB-19 CNS is above 100 µM; in the experiment on SK-MEL-5 melanoma, above 75.2 µM; in the experiment on NCI/ADR-RES ovarian, above 100 µM; with OVCAR-5 ovarian, above 100 µM; with SF-268 CNS, above 100 µM; in the experiment with NCI-H226 lung, above 100 µM. In addition, the TGI with SN12C renal, with MDA-MB-231 breast, in the experiment with SK-MEL-28 melanoma and in the experiment with PC-3 prostate was above 100 µM each time.
Consider `COc1cc(/C=C/C(=O)C(C(=O)/C=C/c2ccc(OC(=O)CCNC34CC5CC(CC(C5)C3)C4)c(OC)c2)C(=O)CCNC23CC4CC(CC(C4)C2)C3)ccc1OC(=O)CCNC12CC3CC(CC(C3)C1)C2` (centres undefined), for which the GI50 in the experiment with SNB-19 CNS was 4.07 µM; in the experiment with SK-MEL-5 melanoma, 3.36 µM; in the experiment with NCI/ADR-RES ovarian, 4.82 µM; with OVCAR-5 ovarian, 5.65 µM; in the experiment with SF-268 CNS it was 2.7 µM; in the experiment with NCI-H226 lung it was 3.21 µM. In addition, the GI50 in the experiment on SN12C renal is 2.85 µM; with MDA-MB-231 breast it was 3.99 µM; in the experiment with SK-MEL-28 melanoma it was 1.67 µM; with PC-3 prostate, 3.86 µM. Also, the TGI in the experiment on SNB-19 CNS amounted to 15.9 µM; in the experiment on SK-MEL-5 melanoma, 13.4 µM; with NCI/ADR-RES ovarian, 90.2 µM; in the experiment on OVCAR-5 ovarian, 19.6 µM; with SF-268 CNS, 10.9 µM; in the experiment on NCI-H226 lung, 12.5 µM. The TGI with SN12C renal came to 9.48 µM; in the experiment on MDA-MB-231 breast it was 26.5 µM; in the experiment with SK-MEL-28 melanoma it was 4.28 µM; with PC-3 prostate, 25.1 µM.
Take `CS(=O)(=O)CS(=O)(=O)OCCCl`: the TGI with SNB-19 CNS was 969 µM; in the experiment with SK-MEL-5 melanoma it was 777 µM; in the experiment with NCI/ADR-RES ovarian it was 1960 µM; in the experiment with OVCAR-5 ovarian it was 1260 µM; in the experiment on SF-268 CNS, 990 µM; in the experiment on NCI-H226 lung it was 785 µM. Also, the TGI was determined as 706 µM with SN12C renal, 918 µM with MDA-MB-231 breast, 1510 µM with SK-MEL-28 melanoma and 990 µM in the experiment on PC-3 prostate.
Regarding `Cc1c2c(C(N)=O)nccc2c(C)c2c1c1ccccc1n2Cc1ccccc1`, the concentration for total growth inhibition (TGI) in the experiment on SNB-19 CNS was 51.2 µM; with SK-MEL-5 melanoma it was 67.5 µM; with NCI/ADR-RES ovarian, 27.9 µM; in the experiment with OVCAR-5 ovarian, above 100 µM; with SF-268 CNS, 97.5 µM; in the experiment on NCI-H226 lung it was 69.6 µM. Besides, the TGI was 44.8 µM in the experiment with SN12C renal, 28 µM in the experiment with MDA-MB-231 breast, above 100 µM with SK-MEL-28 melanoma and 27.7 µM with PC-3 prostate.
As for `O=C(CCN1CCOCC1)Nc1cccc(-n2cc(-c3ccncc3)c(-c3ccc(Cl)c(O)c3)n2)c1`, the GI50 in the experiment with SNB-19 CNS was 4.87 µM; in the experiment on SK-MEL-5 melanoma, 0.621 µM; in the experiment with NCI/ADR-RES ovarian, 2.29 µM; with OVCAR-5 ovarian, 4.07 µM; with SF-268 CNS, 2.81 µM; in the experiment on NCI-H226 lung, 4.98 µM. For the same molecule, the GI50 with SN12C renal was 3.74 µM; with MDA-MB-231 breast it was 2.6 µM; in the experiment on SK-MEL-28 melanoma it was 1.53 µM; in the experiment with PC-3 prostate, 1.74 µM. The TGI was 22.6 µM with SNB-19 CNS; 2.36 µM in the experiment on SK-MEL-5 melanoma; above 100 µM in the experiment with NCI/ADR-RES ovarian; 18.4 µM in the experiment with OVCAR-5 ovarian; 14.4 µM in the experiment with SF-268 CNS; 21.4 µM with NCI-H226 lung. Besides, the TGI in the experiment on SN12C renal came to 23.6 µM; in the experiment on MDA-MB-231 breast, 6.84 µM; in the experiment on SK-MEL-28 melanoma, 3.33 µM; in the experiment on PC-3 prostate it was 12.9 µM.
Consider `O=C(NC1CCCCC1)c1ccc(Nc2ncnc3c2cnn3-c2ccccc2)cc1`, for which the GI50 in the experiment on SNB-19 CNS is 3.82 µM; with SK-MEL-5 melanoma it was 21.7 µM; in the experiment with NCI/ADR-RES ovarian it was 7.06 µM; in the experiment on OVCAR-5 ovarian, 15.2 µM; in the experiment on SF-268 CNS it was 5.85 µM; in the experiment with NCI-H226 lung, 3.35 µM. Also, the GI50 with SN12C renal was 8.26 µM; in the experiment with MDA-MB-231 breast, 5.09 µM; with SK-MEL-28 melanoma, 3.79 µM; in the experiment with PC-3 prostate, 11.8 µM. The TGI is 18.9 µM in the experiment with SNB-19 CNS; above 100 µM with SK-MEL-5 melanoma; above 100 µM with NCI/ADR-RES ovarian; 95.2 µM in the experiment on OVCAR-5 ovarian; above 100 µM with SF-268 CNS; 21.5 µM with NCI-H226 lung. Moreover, the TGI in the experiment on SN12C renal is above 100 µM; with MDA-MB-231 breast, 21.9 µM; with SK-MEL-28 melanoma, above 100 µM; in the experiment on PC-3 prostate, 44.8 µM.
As for `c1ccc2c(c1)c1ccccc1c1ccccc21`, the GI50 with SNB-19 CNS, in the experiment on SK-MEL-5 melanoma, with NCI/ADR-RES ovarian, in the experiment with OVCAR-5 ovarian, with SF-268 CNS and with NCI-H226 lung was above 100 µM each time. The GI50 with SN12C renal is above 100 µM; in the experiment with MDA-MB-231 breast, 87.2 µM; in the experiment with SK-MEL-28 melanoma, above 100 µM; with PC-3 prostate, above 100 µM. Further, the TGI in the experiment with SNB-19 CNS, in the experiment with SK-MEL-5 melanoma, with NCI/ADR-RES ovarian, with OVCAR-5 ovarian, with SF-268 CNS and in the experiment with NCI-H226 lung was above 100 µM in each case. Besides, the total growth inhibition concentration (TGI) with SN12C renal, in the experiment on MDA-MB-231 breast, with SK-MEL-28 melanoma and in the experiment with PC-3 prostate was above 100 µM throughout.
For the molecule `COc1cc(OC)c2sc(-c3ccc(-n4cncc4-c4cc(OC)c(OC)c(OC)c4)cc3)nc2c1`, the GI50 was above 100 µM in the experiment on SNB-19 CNS; 2.46 µM with SK-MEL-5 melanoma; 5.65 µM in the experiment with NCI/ADR-RES ovarian; above 100 µM in the experiment with OVCAR-5 ovarian; above 100 µM in the experiment on SN12C renal; 3.51 µM in the experiment with MDA-MB-231 breast. Also, the GI50 in the experiment with PC-3 prostate was 2.54 µM. The concentration for total growth inhibition (TGI) in the experiment with SNB-19 CNS, with SK-MEL-5 melanoma, in the experiment with NCI/ADR-RES ovarian, with OVCAR-5 ovarian, in the experiment with SN12C renal and in the experiment on MDA-MB-231 breast was above 100 µM throughout. In the experiment with PC-3 prostate, this molecule registered a total growth inhibition concentration (TGI) above 100 µM.

Usually GI50 stands for the concentration that inhibits growth by half. The term TGI denotes the concentration giving total growth inhibition. High values mean lower sensitivity of the cells, low ones greater sensitivity of the cells.
